Laboratory results from paper PMC11913021 (Journal of Medicinal Chemistry, 2024).

How the values were obtained:
wild-type PLD1 = biological target: T1, wild-type PLD1 (Homo sapiens, UniProt Q13393); experiment: PLD activity assay in wild-type PLD1-transfected cells; assay type: cell-based
T1 sequence (Q13393 1-1036 isoform Q13393-2): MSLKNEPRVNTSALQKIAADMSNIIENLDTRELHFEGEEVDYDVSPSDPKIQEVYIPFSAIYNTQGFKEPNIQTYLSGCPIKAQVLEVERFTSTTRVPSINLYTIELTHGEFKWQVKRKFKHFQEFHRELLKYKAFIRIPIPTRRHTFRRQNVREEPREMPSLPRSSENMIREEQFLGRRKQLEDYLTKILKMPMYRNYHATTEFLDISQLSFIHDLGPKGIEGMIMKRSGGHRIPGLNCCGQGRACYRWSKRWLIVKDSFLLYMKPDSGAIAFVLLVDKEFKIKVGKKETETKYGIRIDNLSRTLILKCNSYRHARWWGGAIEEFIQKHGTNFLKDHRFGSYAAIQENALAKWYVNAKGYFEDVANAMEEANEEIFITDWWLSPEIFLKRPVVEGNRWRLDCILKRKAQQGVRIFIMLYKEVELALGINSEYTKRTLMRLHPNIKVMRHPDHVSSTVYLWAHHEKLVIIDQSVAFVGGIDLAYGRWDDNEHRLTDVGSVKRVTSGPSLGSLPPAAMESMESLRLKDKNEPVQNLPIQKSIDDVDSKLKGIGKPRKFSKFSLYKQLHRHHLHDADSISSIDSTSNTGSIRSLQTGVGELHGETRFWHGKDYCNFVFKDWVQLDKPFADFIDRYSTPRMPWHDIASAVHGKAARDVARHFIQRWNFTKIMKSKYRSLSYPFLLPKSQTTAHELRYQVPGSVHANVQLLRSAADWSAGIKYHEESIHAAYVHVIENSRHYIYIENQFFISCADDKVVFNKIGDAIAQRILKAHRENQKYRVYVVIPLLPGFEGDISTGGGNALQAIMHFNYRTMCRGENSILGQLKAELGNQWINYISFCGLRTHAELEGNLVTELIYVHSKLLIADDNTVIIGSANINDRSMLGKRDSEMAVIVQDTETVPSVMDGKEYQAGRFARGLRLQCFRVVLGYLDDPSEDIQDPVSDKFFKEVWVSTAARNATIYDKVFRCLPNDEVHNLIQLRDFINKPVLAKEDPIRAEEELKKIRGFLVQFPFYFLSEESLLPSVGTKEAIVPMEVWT

PLD1 = biological target: T2, PLD1 (Homo sapiens, UniProt Q13393); experiment: PLD activity in PLD1-overexpressing A549 cells; assay type: cell-based
T2 sequence (Q13393 1-1074): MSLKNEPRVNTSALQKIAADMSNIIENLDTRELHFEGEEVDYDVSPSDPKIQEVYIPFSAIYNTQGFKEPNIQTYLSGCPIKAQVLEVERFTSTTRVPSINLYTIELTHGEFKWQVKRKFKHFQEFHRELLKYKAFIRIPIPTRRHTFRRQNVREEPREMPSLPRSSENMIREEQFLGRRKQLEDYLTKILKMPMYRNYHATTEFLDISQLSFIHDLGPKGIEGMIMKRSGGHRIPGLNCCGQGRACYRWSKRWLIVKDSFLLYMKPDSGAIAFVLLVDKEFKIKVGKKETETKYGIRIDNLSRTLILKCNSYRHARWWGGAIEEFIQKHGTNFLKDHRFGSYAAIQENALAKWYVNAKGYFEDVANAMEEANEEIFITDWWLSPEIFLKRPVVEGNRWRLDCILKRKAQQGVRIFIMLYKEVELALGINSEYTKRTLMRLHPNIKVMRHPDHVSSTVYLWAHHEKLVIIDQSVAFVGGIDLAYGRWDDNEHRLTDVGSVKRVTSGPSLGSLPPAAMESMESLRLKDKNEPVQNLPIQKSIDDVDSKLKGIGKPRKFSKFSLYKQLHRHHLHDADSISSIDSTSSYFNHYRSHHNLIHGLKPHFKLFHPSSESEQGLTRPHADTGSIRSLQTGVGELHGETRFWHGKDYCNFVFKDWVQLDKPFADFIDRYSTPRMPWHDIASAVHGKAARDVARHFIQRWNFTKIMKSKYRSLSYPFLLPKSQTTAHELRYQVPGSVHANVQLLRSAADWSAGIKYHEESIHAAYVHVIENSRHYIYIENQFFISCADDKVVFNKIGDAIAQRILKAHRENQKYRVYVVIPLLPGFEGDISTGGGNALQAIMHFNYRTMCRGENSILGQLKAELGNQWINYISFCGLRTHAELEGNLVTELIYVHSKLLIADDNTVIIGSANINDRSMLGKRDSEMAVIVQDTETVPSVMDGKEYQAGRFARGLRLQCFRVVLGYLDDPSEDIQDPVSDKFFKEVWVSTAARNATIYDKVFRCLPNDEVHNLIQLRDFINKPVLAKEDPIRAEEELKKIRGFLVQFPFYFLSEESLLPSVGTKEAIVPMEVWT

[1] = Body weight of normal C57BL/6 mice without cancer cells; assay type: in vivo, mouse; settings: oral, C57BL/6 without cancer cells, vs untreated

Question: With “N-(3,5-Bis(trifluoromethyl)phenyl)-3-(1H-indol-3-yl)propanamide [3r]” as the substance, how does the PLD activity (wild-type PLD1) read?
Answer: significantly suppressed

Question: What about the PLD1 activity (PLD1) of the same substance?
Answer: selectively suppressed

Question: What about the “weight of the normal mice” value [1] of the same substance?
Answer: no effect
